Where two headings read alike, the source gives them in different places. Where a SMILES comes first, the peptide text is derived from it. The star is where a group is joined. 2‑naphthylmethyl = c1ccc2cc(C*)ccc2c1; Palmitoyl = CCCCCCCCCCCCCCCC(=O)*
Tests used:
[1] = ATR-FT-IR determination of β-sheet content; format: physicochemical; conditions: 1 mg/mL in PBS lyophilized; integral at 1630 cm^-1 relative to 1650-1700 cm^-1
Method in brief: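 Lyophilized fibril samples measured by diamond ATR-FT-IR, 2 cm^-1 resolution, 64 scans averaged. β-sheet content taken from the second-derivative spectrum as the 1630 cm-1 peak integral relative to the 1650-1700 cm-1 integral.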

[2] = Zeta-potential measurement (dynamic light scattering); format: physicochemical
[3] = Fluorescence microscopy of ThT-stained fibrils (µm-sized aggregates); format: physicochemical; conditions: for fluorescent, µm-sized aggregates (ThT staining): 1 mg/mL stained with 50 µM ThT
Method in brief: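 Fibrils (1 mg mL^-1) mixed 1:9 with 50 µM ThT, giving 0.1 mg mL^-1 stained fibrils on glass. Imaged under 10x air objective with excitation 480/40 nm and emission 527/30 nm. Fibrils called distinct when no visible structures appeared in fluorescence or brightfield.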

[4] = TEM of peptide assemblies (fibril formation / assembly); format: physicochemical; parameters: key to Fibril Formation: "1" means fibril formation observed; "0" means no fibrils observed; conditions: for TEM morphology (in words): 1 mg/mL in PBS; for Assembly without hydrophob residue: corresponding peptide without hydrophobic moiety; for Assembly: peptide amphiphile
Method in brief: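 Peptides predissolved in DMSO at 10 mg/mL (stock), diluted in PBS to 650 µM or 1 mg/mL final and incubated 1 d at rt (20–25 °C) to form fibrils. Other concentrations obtained by diluting preformed fibrils; assemblies imaged by TEM.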

[5] = Thioflavin T (ThT) fluorescence assay; format: physicochemical; conditions: relative to PBS control
Protocol: Transmission electron microscopy (TEM) measurements, Thioflavin (ThT), zeta-potential measurements for fibril characterization were prepared and conducted according to prior art procedures. […] Fibrils were defined as distinct, if no visible structures could be identified in fluorescence and brightfield microscopy. A peptide fibril was considered as ThT-active if the fluorescence intensity was at least twice as strong compared to the control (PBS containing 10% DMSO).

HIV-1 = conditions: for Infectivity enhancing N fold at 1.3 µM: relative to virus only;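 as to all read-outs here: TZM-bl reporter cells exposed to HIV-1 with peptide fibrils, infection read out as β-galactosidase luminescence, compared with virus alone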
Protocol: HIV-1 Infection Assay with TZM-bl cells: The effect of peptide fibrils on HIV-1 infection was studied via a luminescence assay for β-galactosidase, which was reported by TZM-bl cells upon infection. The HIV-1 infection assay was conducted in three technical replicates and repeated in three independent experiments unless stated otherwise.

[6] = Zeta-potential measurement (dynamic light scattering); format: physicochemical; remark: listed apart in the source
Protocol: Zeta-potential: 60 µL of the peptides (1 mg mL-1) were diluted in 600 µL, 1 mM KCI solution and placed in a disposable folded capillary cuvette. All zeta-potential measurements were conducted by dynamic light scattering technology (Zetasizer, Malvern Instruments) and in triplicates for each sample. The derived count rate of the zeta potential measurement was used as information on the light scattering intensity and turbidity of the sample as a further indicator for microscopic aggregation.

HeLa cells = experiment: Confocal laser scanning microscopy and degradation study with PA library and HeLa cells; format: cell-based; conditions: for association with cellular membranes: 2 µg added to 20.000 HeLa cells, 30 min; for degradability (in words) / Degradability / % (rel. to initial particles > 10 µm^2): HeLa cells; for degradability (in words): 3 days; for Degradability / % (rel. to initial particles > 10 µm^2): 3 d relative to 30 min; for aggregate number decreases / degraded in presence of HeLa cells within 3 days: d3 relative to d0
Method in brief: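 HeLa cells (20,000/well) got Proteostat-stained PAs (2 µg peptide per 20.000 cells) with Hoechst nuclear stain, 30 min at 37°C, PBS-washed, then held 3 d at 37°C unwashed. Confocal imaging at d0 and d3 counted aggregates >10 µm^2 in 1008 × 1008 µm, three technical replicates. Degradation taken as d3/d0 aggregate number.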

Molecule	β-sheet amount [1] [%]	Zeta-Potential / mV [2] [mV]	formation of µm-sized aggregates in aqueous medium / PBS (in words) [3]	TEM morphology (in words) [4]	Assembly without hydrophob residue [4]	Assembly [4]	Fibril Formation ([4]; via TEM, hydrophobic moiety exchange)	N-fold ThT-fluorescence [5]	infectivity enhancement at 1.3 µM concentration compared to virus only infection (in words) (HIV-1)	Infectivity enhancing N fold at 1.3 µM (HIV-1) [N fold]	zeta-potential (in words) [6]	Count Rate / kcps ([6]; derived count rate of scattered light during zeta-potential measurements) [kcps]	association with cellular membranes (HeLa cells)	degradability (in words) (HeLa cells)	Degradability / % (rel. to initial particles > 10 µm^2) (HeLa cells) [%]	aggregate number decreases / degraded in presence of HeLa cells within 3 days (HeLa cells) [%]	fluorescent, µm-sized aggregates (ThT staining) [3]	enhances infectivity at 1.3 µM concentration, times more efficient compared to virus only infection (HIV-1) [times]	Degradability / % (rel. to initial particles > 10 µm^2) (HeLa cells; listed as Pat 15) [%]	Infectivity enhancing N fold at 1.3 µM (HIV-1; listed as Pat 15) [N fold]
Nap-VVVAAAKKK-NH2 ({2‑naphthylmethyl}-VVVAAAKKK-NH2; SMILES CC(C)[C@H](NCc1ccc2ccccc2c1)C(=O)N[C@H](C(=O)N[C@H](C(=O)N[C@@H](C)C(=O)N[C@@H](C)C(=O)N[C@@H](C)C(=O)N[C@@H](CCCCN)C(=O)N[C@@H](CCCCN)C(=O)N[C@@H](CCCCN)C(N)=O)C(C)C)C(C)C) [Pat13]	46	1.2	failed to form µm-sized aggregates in aqueous medium	formed fibrils in aqueous medium	No	Yes	1	1.3	does not enhance infectivity	1±1	almost neutral zeta-potential	9.3								
CCCCCCCCCCCCCCCC(=O)N[C@@H](C)C(=O)N[C@@H](CC(C)C)C(=O)N[C@@H](C)C(=O)N[C@@H](C)C(=O)NCC(=O)N[C@@H](CCCCN)C(=O)N[C@@H](CCCCN)C(N)=O [Pat20, C16-ALAAGKK-NH2] (Palmitoyl-ALAAGKK-NH2)	48	20.2		fibrillar morphologies	No	Yes				5±1			association with cellular membranes	degradable PA	87	87	fluorescent, µm-sized aggregates	5		
CCCCCCCCCCCCCCCC(=O)N[C@H](C(=O)N[C@H](C(=O)N[C@@H](CCC(N)=O)C(=O)N[C@@H](CCCCN)C(=O)N[C@H](C(=O)N[C@@H](CCCCN)C(N)=O)[C@@H](C)CC)[C@@H](C)CC)[C@@H](C)CC [Pat15, C16-IIQKIK-NH2] (Palmitoyl-IIQKIK-NH2)	45	12.6		fibrillar morphologies	No	Yes				4±1			association with cellular membranes	degradable PA	-28	28	fluorescent, µm-sized aggregates	4	28	4

From patent publication EP4458977A1, “SELF-ASSEMBLING PEPTIDE AMPHIPHILES AS RETROVIRAL TRANSDUCTION ENHANCERS” (Max-Planck-Gesellschaft zur Förderung der Wissenschaften …, priority 2023, dated 2024)
